The values that follow are results of earlier work, collected in patent US20030175285A1, “Molecule of pharmaceutical interest comprising at its n-terminal a glutamic acid or a glutamine in the form of a physiologically acceptable strong acid” (priority 2000, published 2003).

Ends that are not written are not given here.

Data set [1] has as its system osteoblasts and chondrocytes. To be noted: trifluoroacetate form.
For data set [2], the system named is melanoma. To be noted: acetate form, patients suffering from a melanoma.
For data set [3] the following is noted: acetate form.

On to Calcitonin, for which, in data set [1], the “toxicity for cells in culture” value is on record as “toxic”.
Turning to EVDPIGHLY [MAGE-3], in data set [2], the clinical antitumor effect entry is listed as “tumor regression”. Besides, the required storage temperature in data set [3] was −80 °C.
As to “Amylin: synthetic peptide in trifluoroacetate form (KCNTATCATQRLANFLVHSSNNFGAILSSTNVGSNTY; cysteine pairing not given here; also: trifluoroacetate salt; UniProt P10997 34-70, looked up)”, the “toxicity for cells in culture” value in data set [1] is recorded as “toxic”.
